Test results published in paper PMC8620908, “Design, Synthesis, In Vitro Anticancer Evaluation and Molecular Modelling Studies of 3,4,5-Trimethoxyphenyl-Based Derivatives as Dual EGFR/HDAC Hybrid Inhibitors” (Pharmaceuticals, 2021).
Where two headings read alike, the source gives them in different places.

Experiments:
A549 = assay: Antiproliferative MTT assay, A549; conditions: Homo sapiens, A549, read-out: Antiproliferative Activity IC50 ± SEM, A549
HDAC8 = biological target: T1, HDAC8 (Homo sapiens, UniProt Q9BY41); assay: In vitro HDAC inhibition assay, HDAC8
T1 sequence (Q9BY41 1-377): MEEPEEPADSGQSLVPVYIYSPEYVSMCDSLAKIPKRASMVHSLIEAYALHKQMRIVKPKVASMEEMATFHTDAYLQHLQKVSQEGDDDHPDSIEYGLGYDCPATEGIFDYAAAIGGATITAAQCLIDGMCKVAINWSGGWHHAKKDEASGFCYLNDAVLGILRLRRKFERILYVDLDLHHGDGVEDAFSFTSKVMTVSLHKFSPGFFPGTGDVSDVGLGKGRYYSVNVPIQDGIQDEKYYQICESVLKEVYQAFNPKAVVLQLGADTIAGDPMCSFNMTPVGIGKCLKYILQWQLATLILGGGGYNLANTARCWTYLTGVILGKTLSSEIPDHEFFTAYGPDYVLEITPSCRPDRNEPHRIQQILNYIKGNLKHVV

HDAC4 = HDAC4 (Homo sapiens, UniProt P56524); assay: In vitro HDAC inhibition assay, HDAC4
EGFR = EGFR (Homo sapiens, UniProt P00533); assay: EGFR-TK inhibition, cell-free assay; format: biochemical
MCF-7 = assay: Antiproliferative MTT assay, MCF-7; conditions: Homo sapiens, MCF7, read-out: Antiproliferative Activity IC50 ± SEM, MCF-7
HCT116 = assay: Antiproliferative MTT assay, HCT116; conditions: Homo sapiens, HCT-116, read-out: Antiproliferative Activity IC50 ± SEM, HCT116
HepG2 = assay: Antiproliferative MTT assay, HepG2; conditions: Homo sapiens, HepG2, read-out: Antiproliferative Activity IC50 ± SEM, HepG2
HDAC1 = HDAC1 (Homo sapiens, UniProt Q13547); assay: In vitro HDAC inhibition assay, HDAC1
HDAC2 = HDAC2 (Homo sapiens, UniProt Q92769); assay: In vitro HDAC inhibition assay, HDAC2
HDAC6 = biological target: T2, HDAC6 (Homo sapiens, UniProt Q9UBN7); assay: In vitro HDAC inhibition assay, HDAC6
T2 sequence (Q9UBN7 1-1215): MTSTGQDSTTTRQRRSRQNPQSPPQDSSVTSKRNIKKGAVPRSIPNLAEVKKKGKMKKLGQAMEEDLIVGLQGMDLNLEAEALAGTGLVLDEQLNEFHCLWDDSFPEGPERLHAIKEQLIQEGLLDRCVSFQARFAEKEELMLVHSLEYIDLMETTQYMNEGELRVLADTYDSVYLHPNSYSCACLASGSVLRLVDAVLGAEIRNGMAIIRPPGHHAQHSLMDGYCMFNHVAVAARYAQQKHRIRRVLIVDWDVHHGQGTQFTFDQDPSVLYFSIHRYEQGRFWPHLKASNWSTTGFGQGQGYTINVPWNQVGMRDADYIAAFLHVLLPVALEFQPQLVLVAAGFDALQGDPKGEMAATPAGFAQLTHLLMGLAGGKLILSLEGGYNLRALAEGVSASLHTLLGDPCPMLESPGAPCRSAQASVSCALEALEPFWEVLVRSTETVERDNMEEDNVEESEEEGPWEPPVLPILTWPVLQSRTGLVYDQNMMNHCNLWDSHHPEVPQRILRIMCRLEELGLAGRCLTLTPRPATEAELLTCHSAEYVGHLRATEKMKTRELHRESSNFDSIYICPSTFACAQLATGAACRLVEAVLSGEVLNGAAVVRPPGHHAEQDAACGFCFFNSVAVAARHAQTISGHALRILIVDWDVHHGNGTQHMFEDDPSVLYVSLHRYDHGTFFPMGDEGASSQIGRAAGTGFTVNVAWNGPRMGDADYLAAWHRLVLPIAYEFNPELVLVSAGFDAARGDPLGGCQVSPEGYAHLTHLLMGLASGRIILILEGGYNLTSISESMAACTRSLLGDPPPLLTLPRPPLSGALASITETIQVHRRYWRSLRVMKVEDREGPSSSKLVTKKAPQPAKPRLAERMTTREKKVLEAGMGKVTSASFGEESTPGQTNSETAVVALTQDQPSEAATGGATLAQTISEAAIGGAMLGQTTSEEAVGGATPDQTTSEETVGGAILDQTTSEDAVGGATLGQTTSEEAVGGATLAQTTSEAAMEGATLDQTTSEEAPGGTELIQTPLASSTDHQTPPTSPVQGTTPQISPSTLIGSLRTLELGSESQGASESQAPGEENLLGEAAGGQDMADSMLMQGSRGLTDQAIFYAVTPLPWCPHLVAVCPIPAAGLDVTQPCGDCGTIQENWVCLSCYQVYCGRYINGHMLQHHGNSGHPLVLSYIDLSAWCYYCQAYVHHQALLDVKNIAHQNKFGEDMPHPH

Caspase-8 = Caspase-8 level assay in HepG2 cancer cell line; format: cell-based, human; conditions: HepG2 cancer cell line
Bax = Bax level assay in HepG2 cancer cell line; format: cell-based; conditions: HepG2 cancer cell line
Caspase-3 = Caspase-3 level assay in HepG2 cancer cell line; format: cell-based, human

Sequence of HDAC4 (P56524 whole entry): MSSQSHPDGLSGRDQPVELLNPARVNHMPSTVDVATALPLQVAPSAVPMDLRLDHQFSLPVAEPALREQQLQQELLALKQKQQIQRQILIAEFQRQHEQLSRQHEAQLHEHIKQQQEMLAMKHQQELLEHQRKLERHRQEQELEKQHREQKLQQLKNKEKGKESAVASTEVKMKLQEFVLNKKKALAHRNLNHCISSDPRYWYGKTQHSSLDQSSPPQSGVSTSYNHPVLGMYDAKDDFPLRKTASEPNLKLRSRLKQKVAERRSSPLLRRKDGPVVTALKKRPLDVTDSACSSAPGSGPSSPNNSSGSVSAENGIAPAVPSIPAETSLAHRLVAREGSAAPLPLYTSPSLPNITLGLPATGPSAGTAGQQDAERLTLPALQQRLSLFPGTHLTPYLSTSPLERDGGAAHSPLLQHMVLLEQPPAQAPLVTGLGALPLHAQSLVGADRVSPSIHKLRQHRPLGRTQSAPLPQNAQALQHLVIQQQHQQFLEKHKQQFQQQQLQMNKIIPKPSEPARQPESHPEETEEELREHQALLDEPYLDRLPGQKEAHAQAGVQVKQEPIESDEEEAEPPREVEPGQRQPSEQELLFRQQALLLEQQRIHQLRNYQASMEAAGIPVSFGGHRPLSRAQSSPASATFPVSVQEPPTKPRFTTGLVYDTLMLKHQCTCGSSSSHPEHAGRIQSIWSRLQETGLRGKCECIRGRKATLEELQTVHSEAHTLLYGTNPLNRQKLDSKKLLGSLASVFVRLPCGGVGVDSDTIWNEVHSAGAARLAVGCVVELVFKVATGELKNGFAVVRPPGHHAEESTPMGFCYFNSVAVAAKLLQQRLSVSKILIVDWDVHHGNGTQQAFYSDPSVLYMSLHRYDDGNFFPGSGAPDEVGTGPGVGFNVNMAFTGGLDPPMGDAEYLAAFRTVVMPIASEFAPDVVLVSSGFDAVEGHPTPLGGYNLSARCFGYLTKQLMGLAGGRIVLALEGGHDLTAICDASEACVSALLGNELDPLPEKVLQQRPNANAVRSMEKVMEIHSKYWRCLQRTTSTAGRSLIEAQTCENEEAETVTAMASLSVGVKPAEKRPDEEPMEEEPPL
Sequence of HDAC1 (Q13547 whole entry): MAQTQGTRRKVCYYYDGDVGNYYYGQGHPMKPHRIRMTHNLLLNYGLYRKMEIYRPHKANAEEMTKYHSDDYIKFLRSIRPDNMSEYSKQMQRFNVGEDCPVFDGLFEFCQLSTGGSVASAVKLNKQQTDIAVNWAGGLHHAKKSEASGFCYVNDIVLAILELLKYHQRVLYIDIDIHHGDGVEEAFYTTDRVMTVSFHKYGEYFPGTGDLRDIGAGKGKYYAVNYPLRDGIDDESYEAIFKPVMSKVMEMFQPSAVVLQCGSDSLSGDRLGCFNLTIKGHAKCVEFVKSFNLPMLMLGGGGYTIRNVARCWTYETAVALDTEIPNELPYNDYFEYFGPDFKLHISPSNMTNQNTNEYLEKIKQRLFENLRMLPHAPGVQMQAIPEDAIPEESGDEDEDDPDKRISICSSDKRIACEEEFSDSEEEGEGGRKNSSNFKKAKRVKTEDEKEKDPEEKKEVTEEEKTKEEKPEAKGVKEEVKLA
Sequence of EGFR (P00533 25-1210): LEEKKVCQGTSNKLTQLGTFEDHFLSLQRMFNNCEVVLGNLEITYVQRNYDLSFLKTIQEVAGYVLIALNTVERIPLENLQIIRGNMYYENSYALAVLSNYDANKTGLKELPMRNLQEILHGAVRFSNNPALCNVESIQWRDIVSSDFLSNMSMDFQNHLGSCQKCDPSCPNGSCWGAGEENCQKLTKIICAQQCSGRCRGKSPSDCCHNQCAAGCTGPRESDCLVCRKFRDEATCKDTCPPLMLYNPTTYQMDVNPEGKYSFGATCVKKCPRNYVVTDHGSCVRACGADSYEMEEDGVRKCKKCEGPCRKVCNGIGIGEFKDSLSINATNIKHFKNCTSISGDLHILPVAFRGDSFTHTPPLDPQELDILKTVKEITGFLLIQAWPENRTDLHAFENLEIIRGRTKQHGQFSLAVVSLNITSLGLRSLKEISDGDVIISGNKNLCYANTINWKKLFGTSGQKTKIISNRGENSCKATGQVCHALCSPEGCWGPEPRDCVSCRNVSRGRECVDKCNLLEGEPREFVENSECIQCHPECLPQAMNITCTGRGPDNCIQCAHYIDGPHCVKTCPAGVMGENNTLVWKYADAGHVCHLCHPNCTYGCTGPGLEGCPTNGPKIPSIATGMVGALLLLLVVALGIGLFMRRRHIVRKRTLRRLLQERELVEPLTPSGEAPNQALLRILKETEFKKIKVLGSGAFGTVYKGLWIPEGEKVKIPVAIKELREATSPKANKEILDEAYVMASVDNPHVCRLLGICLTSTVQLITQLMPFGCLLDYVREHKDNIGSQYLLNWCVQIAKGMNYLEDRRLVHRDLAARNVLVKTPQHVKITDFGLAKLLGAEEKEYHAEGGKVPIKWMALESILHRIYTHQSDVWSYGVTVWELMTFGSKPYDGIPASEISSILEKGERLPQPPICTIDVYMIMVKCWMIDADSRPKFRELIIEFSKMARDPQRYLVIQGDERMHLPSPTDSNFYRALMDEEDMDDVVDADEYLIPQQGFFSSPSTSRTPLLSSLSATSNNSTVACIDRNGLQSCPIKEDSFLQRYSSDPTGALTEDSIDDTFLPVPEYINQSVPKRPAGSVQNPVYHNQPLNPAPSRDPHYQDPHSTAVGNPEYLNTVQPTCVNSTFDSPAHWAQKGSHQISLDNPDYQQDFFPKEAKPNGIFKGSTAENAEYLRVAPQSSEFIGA
Sequence of HDAC2 (Q92769 whole entry): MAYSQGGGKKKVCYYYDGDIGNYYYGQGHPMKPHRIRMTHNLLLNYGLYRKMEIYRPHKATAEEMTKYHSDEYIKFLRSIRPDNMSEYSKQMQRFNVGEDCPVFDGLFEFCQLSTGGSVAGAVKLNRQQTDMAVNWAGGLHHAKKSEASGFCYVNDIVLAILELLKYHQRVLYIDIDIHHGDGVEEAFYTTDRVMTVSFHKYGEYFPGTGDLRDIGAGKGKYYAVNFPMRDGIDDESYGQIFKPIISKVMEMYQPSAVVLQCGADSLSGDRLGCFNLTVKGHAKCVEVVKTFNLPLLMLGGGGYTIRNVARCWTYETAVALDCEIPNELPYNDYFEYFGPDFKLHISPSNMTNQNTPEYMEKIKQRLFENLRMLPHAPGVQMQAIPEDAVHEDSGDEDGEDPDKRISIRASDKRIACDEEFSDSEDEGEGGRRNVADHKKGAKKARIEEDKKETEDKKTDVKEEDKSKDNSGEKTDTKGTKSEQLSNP

| SMILES | IC50 (A549) [µM] | IC50 (HDAC8) [µM] | IC50 (HDAC4) [µM] | IC50 (EGFR) [µM] | IC50 (MCF-7) [µM] | melting point [°C] | IC50 (HCT116) [µM] | IC50 (HepG2) [µM] | IC50 (HDAC1) [µM] | IC50 (HDAC2) [µM] | IC50 (HDAC6) [µM] | Caspase-8 Conc (Caspase-8) [ng/mL] | Caspase-8 Conc (Caspase-8; listed as staurosporine) [ng/mL] | Bax Conc (Bax) [pg/mL] | Bax Conc (Bax; listed as staurosporine) [pg/mL] | Caspase-3 Conc (Caspase-3) [pg/mL] | Caspase-3 Conc (Caspase-3; listed as staurosporine) [pg/mL] |
| --- | --- | --- | --- | --- | --- | --- | --- | --- | --- | --- | --- | --- | --- | --- | --- | --- | --- |
| COc1cc(-c2cc(-c3ccc(OCCCCC(=O)NO)cc3)[nH]c(=O)c2C#N)cc(OC)c1OC [5a, 5-(4-(5-Cyano-6-Oxo-4-(3,4,5-Trimethoxyphenyl)-1,6-Dihydropyridin-2-yl)Phenoxy)-N-Hydroxypentanamide] | 2.3 ± 0.12 | 19.6 | 17.5 | 0.214 ± 0.004 | 4.89 ± 0.26 | 232 to 238 | 4.67 ± 0.25 | 3.46 ± 0.19 | 0.051 | 0.256 | 0.222 |  |  |  |  |  |  |
| COc1cc(-c2cc(-c3ccc(OCCCCCC(=O)O)cc3)[nH]c(=O)c2C#N)cc(OC)c1OC [3b, 6-(4-(5-Cyano-6-Oxo-4-(3,4,5-Trimethoxyphenyl)-1,6-Dihydropyridin-2-yl)Phenoxy) Hexanoic Acid] | 15.3 ± 0.82 |  |  |  | 12.2 ± 0.65 |  | 15.7 ± 0.85 | 16.2 ± 0.87 |  |  |  |  |  |  |  |  |  |
| COc1cc(-c2cc(-c3ccc(OCCCCCCC(=O)NO)cc3)[nH]c(=O)c2C#N)cc(OC)c1OC [5c, 7-(4-(5-Cyano-6-Oxo-4-(3,4,5-Trimethoxyphenyl)-1,6-dihydropyridin-2-yl)phenoxy)-N-Hydroxyheptanamide] | 8.58 ± 0.46 |  |  |  | 12.1 ± 0.65 | 170 to 176 | 9.47 ± 0.51 | 27.6 ± 1.49 |  |  |  |  |  |  |  |  |  |
| COc1cc(-c2cc(-c3ccc(OCCCCCC(=O)NO)cc3)[nH]c(=O)c2C#N)cc(OC)c1OC [5b, 6-(4-(5-Cyano-6-Oxo-4-(3,4,5-Trimethoxyphenyl)-1,6-Dihydropyridin-2-yl)Phenoxy)-N-Hydroxyhexanamide] | 18.8 ± 1.01 |  |  |  | 19.6 ± 1.05 | 198 to 204 | 16.9 ± 3.71 | 28.3 ± 0.99 |  |  |  |  |  |  |  |  |  |
| COc1cc(/C=C/C(=O)c2ccc(OCCCCCC(=O)O)cc2)cc(OC)c1OC [2b, (E)-6-(4-(3-(3,4,5-Trimethoxyphenyl)Acryloyl)Phenoxy)Hexanoic Acid] | 33.7 ± 1.82 |  |  |  | 39.4 ± 2.12 | 138 to 140 | 23.7 ± 1.28 | 30.4 ± 1.64 |  |  |  |  |  |  |  |  |  |
| COc1cc(/C=C/C(=O)c2ccc(OCCCCCCC(=O)NO)cc2)cc(OC)c1OC [4c, (E)-N-Hydroxy-7-(4-(3-(3,4,5-Trimethoxyphenyl)Acryloyl)Phenoxy)Heptanamide] | 1.93 ± 0.14 | 5.02 | 8.72 | 0.091 ± 0.001 | 1.18 ± 0.06 | 122 to 128 | 1.59 ± 0.09 | 2.54 ± 0.14 | 0.07 | 0.277 | 0.113 |  |  |  |  |  |  |
| COc1cc(-c2cc(-c3ccc(OCCCCCCC(=O)O)cc3)[nH]c(=O)c2C#N)cc(OC)c1OC [3c, 7-(4-(5-Cyano-6-Oxo-4-(3,4,5-Trimethoxyphenyl)-1,6-Dihydropyridin-2-yl)Phenoxy) Heptanoic Acid] | 21.3 ± 1.15 |  |  |  | 23.7 ± 1.28 | 168 to 170 | 13.9 ± 0.75 | 21.1 ± 1.14 |  |  |  |  |  |  |  |  |  |
| COc1cc(/C=C/C(=O)c2ccc(OCCCCC(=O)O)cc2)cc(OC)c1OC [2a, (E)-5-(4-(3-(3,4,5-Trimethoxyphenyl)Acryloyl)Phenoxy)Pentanoic Acid] | 44.4 ± 2.39 |  |  |  | 59.9 ± 3.23 | 102 to 105 | 40.1 ± 2.16 | 88.4 ± 4.76 |  |  |  |  |  |  |  |  |  |
| COc1cc(-c2cc(-c3ccc(OCCCCC(=O)O)cc3)[nH]c(=O)c2C#N)cc(OC)c1OC [3a, 5-(4-(5-Cyano-6-Oxo-4-(3,4,5-Trimethoxyphenyl)-1,6-Dihydropyridin-2-yl)Phenoxy)Pentanoic Acid] | 31 ± 1.67 |  |  |  | 46.4 ± 2.54 | 224 to 228 | 23.5 ± 1.27 | 65.8 ± 3.55 |  |  |  |  |  |  |  |  |  |
| COc1cc(/C=C/C(=O)c2ccc(OCCCCC(=O)NO)cc2)cc(OC)c1OC [4a, (E)-N-Hydroxy-5-(4-(3-(3,4,5-Trimethoxyphenyl)Acryloyl)Phenoxy) Pentanamide] | 2.07 ± 0.11 | 6.35 | 6.69 | 0.111 ± 0.002 | 1.97 ± 0.11 | 220 to 224 | 3.21 ± 0.17 | 3.62 ± 0.2 | 0.121 | 0.119 | 0.086 |  |  |  |  |  |  |
| COc1cc(/C=C/C(=O)c2ccc(OCCCCCCC(=O)O)cc2)cc(OC)c1OC [2c, (E)-7-(4-(3-(3,4,5-Trimethoxyphenyl)Acryloyl)Phenoxy)Heptanoic Acid] | 22.7 ± 1.22 |  |  |  | 14.8 ± 0.8 | 112 to 115 | 16.5 ± 0.89 | 17.1 ± 0.92 |  |  |  |  |  |  |  |  |  |
| CN[C@@H]1C[C@H]2O[C@@](C)([C@@H]1OC)n1c3ccccc3c3c4c(c5c6ccccc6n2c5c31)C(=O)NC4 [Staurosporine, reference compound] |  |  |  |  |  |  |  |  |  |  |  | 1.343 ± 0.026 | 1.343 | 362.2 ± 9.61 | 362.2 | 445.9 ± 15.39 | 445.9 |
